Source: US6693166B1, “Cdk5—specific inhibitory peptides” (Hong Kong University of Science and Technology, priority 1999, dated 2004)
Where a SMILES comes first, the peptide text is derived from it. Where no end group is shown, it is not given here.

Tests used:
[1] = molecular target: T1, GST-Cdk2-cyclin A-H6 complex (Homo sapiens, UniProt P24941); test: Peptide inhibition of Cdk2 kinase activity (histone H1 peptide, [γ-32P]ATP); type: biochemical; conditions: for inhibition of Cdk2 kinase activity (in words): GST-Cdk2.cyclin A-H6, FIG. 3B
T1 construct: made in house; host or cells: E. coli BL21(DE3) (cyclin A-H6); GST-Cdk2 not described
Experimental: The C-terminal histidine-tagged human cyclin A (cyclin A-H6) was expressed and purified in essentially the same manner as described for H6-Cdk5. Briefly, the expression plasmid pET21d containing a cyclin A gene lacking the N-terminal 173 amino acids was transformed into BL21(DE3) E. coli cells. The host cells were cultured in LB medium containing 100 μg/ml ampicillin, and cyclin A expression was induced by adding isopropyl-1-thio-β-D-galactopyranoside to a final concentration of 0.1 mM. The induction of cyclin A expression was for 3 h at 30° C. The pelleted cells were resuspended in 50 mM Tris-HCI, pH 7.5, 300 mM NaCl, and 0.05% Triton X-100, and then lysed in the French press. The subsequent purification of cyclin A using a Ni^2+-NTA column was carried out in a manner identical to that described for the purification of H6-Cdk5. The monomeric, active form of cyclin A-H6 was further purified by passing the cyclin A-H6-containing eluent through a Sephacryl S-200 gel filtration column (Amersham Pharmacia Biotech).
(§1) Peptide Inhibition of Cdk5 and Cdk2 Kinase Activity—Cdk5 kinase activity was assayed essentially as described previously, except that for each Cdk5 kinase reaction 1 μg of GST-Cdk5 was reconstituted with 2 μg of GST-Nck5a, and 1 μg of GST-Cdk2 was mixed with 3 μg of cyclin A-H6 in Cdk2 assays. The reconstituted complexes were added, in duplicate, to an assay mixture containing 30 mM MOPS, pH 7.4, 10 mM MgCl2, 40 μM of the histone H1 peptide, 50 μM [γ-^32P]ATP, and various concentrations of various peptides at 30° C. for 30 min before measuring the Cdk5 and Cdk2 kinase activities.

[2] = molecular target: T2, GST-Cdk5.GST-Nck5a complex (Homo sapiens, UniProt Q00535); test: Peptide inhibition of Cdk5 kinase activity (histone H1 peptide, [γ-32P]ATP); type: biochemical; conditions: for inhibition of Cdk5 kinase activity (in words): GST-Cdk5.GST-Nck5a, FIG. 2 and 3A
T2 construct: made in house
Experimental: as §1

[3] = molecular target: T1, GST-Cdk2-cyclin A-H6 complex; test: Peptide/Cdk binding assay: GSH-bead co-precipitation and Western blot of cyclin A; conditions: various amounts of peptide (0.5, 2, 10 μM; 1000-fold excess)
Experimental: The binding of the αN peptide to the GST-Cdk2-cyclin A-H6 complex was studied in a similar manner to that described above for H6-Cdk5. Briefly, 3 μg of GST-Cdk2 and 10 μg of cyclin A-H6 were reconstituted in Buffer R with various concentrations of the αN peptide at 4° C. for 15 h. GST-Cdk2 was then precipitated by the addition of 20 μl of GSH-Sepharose beads. After washing, the co-precipitated cyclin A-H6 was detected by SDS-PAGE followed by Western blot using a monoclonal antibody against cyclin A (Santa Cruz).
To discriminate between these possibilities, we performed direct binding competition experiments. Various concentrations of the peptides were added to a H6-Cdk5.GST-Nck5a mixture, and GST-Nck5a was then precipitated using GSH-agarose beads. The amount of H6-Cdk5 in complex with GST-Nck5a was determined by Western blotting of the enzyme co-precipitated by GSH-agarose beads. The amount of H6-Cdk5 and cyclin A-H6 used in the experiment described in FIG. 4, A and B, were chosen to ensure that their respective antibodies would be in excess.

[4] = molecular target: T2, GST-Cdk5.GST-Nck5a complex; test: Steady state kinetic analysis of Cdk5 inhibition (double reciprocal and Dixon plots); type: biochemical
Experimental: as §1
Steady State Kinetic Experiments—All assay conditions were the same as in the inhibition assay described above, except that the reaction time was kept at 15 min so that the product formed was less than 5% of the total substrate concentration used. To determine suitable concentrations of the substrate and the inhibitor for the steady state kinetic experiments, the Km value of GST-Cdk5.GST-Nck5a complex and a concentration-dependent inhibition profile of the enzyme by the αN peptide were determined. Four different concentrations of the histone H1 peptide (7.5, 10, 15, and 30 μM) were used in the kinetic analysis of the enzyme inhibition. For each substrate concentration, four concentrations of the αN peptide (0, 10, 20, and 30 μM) were used in the inhibition assay.

[5] = molecular target: T3, H6-Cdk5.GST-Nck5a complex (Homo sapiens, UniProt Q00535); test: Peptide/Cdk binding assay: GSH-bead co-precipitation and Western blot of Cdk5; conditions: various amounts of peptide (5, 20, 50 μM; 1000-fold excess)
T3 construct: made in house; host or cells: Escherichia coli M15 (H6-Cdk5)
Experimental: Peptide/Cdk Binding Assay—H6-Cdk5 (about 3 μg) and 15 μg of GST-p25 were premixed in 300 μl of 1×phosphate-buffered saline with 0.5 mg/ml bovine serum albumin. Some 50-μl quantities of the mixture was taken out to mix with various concentrations of the αN peptide (from serial dilutions made from a 2.0 mM stock solution), and the total volume of the mixture was adjusted to 150 μl using Buffer R (1×phosphate-buffered saline containing 1 mM EDTA, 1 mM dithiothreitol, 0.6 mM phenylmethylsulfonyl fluoride, 1 μg/ml leupeptin, 1 μg/ml leupeptin, 1 μg/ml antipain, 5 mg/ml bovine serum albumin). The reaction mixture was incubated at 4° C for 15 h. GST-Nck5a-H6-Cdk5 complex was then precipitated by the addition of 40 μl of GSH-Sepharose beads pre-equilibrated with 1×phosphate-buffered saline (50%, v/v). The GSH-Sepharose beads were washed three times with 1×phosphate-buffered saline buffer, and subsequently resuspended in 20 μl of water and 20 μl of 2×protein sample treatment buffer. The co-precipitated H6-Cdk5 was detected by SDS-PAGE followed by Western blot using a monoclonal antibody against Cdk5.
To discriminate between these possibilities, we performed direct binding competition experiments. […] The amount of H6-Cdk5 in complex with GST-Nck5a was determined by Western blotting of the enzyme co-precipitated by GSH-agarose beads. […]

[6] = listed as Nck5a-derived peptide

T2 sequence (Q00535 whole entry): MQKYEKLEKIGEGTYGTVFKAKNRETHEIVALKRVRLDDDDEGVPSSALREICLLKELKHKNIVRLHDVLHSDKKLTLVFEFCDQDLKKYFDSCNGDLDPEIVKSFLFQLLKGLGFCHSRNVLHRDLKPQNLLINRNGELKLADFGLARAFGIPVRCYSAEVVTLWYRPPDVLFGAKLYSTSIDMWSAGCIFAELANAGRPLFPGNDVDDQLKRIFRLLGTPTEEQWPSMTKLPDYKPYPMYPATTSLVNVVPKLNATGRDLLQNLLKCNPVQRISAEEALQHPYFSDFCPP
T2 sequence (Q15078 99-307 partner limits assumed): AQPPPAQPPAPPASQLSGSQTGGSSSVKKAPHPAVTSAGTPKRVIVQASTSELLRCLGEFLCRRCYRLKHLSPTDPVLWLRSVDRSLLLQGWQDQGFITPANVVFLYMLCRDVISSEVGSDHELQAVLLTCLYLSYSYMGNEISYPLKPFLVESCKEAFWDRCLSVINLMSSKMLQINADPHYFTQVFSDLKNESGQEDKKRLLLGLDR
T3 sequence (Q00535 whole entry): as the sequence (Q00535 whole entry) above
T3 sequence (Q15078 99-307 partner limits assumed): as the sequence (Q15078 99-307 partner limits assumed) above

inhibition at 0.5 µM ([1]; 0.5 μM peptide)	inhibition at 2 µM ([1]; 2 μM peptide)	inhibition at 10 µM ([1]; 10 μM peptide)	inhibition at 5 µM ([2]; 5 μM peptide, heading: inhibition of Cdk5 activity)	inhibition at 20 µM ([2]; 20 μM peptide)	inhibition at 50 µM ([2]; 50 μM peptide)	inhibition of Cdk5 activity ([2]; 50 μM peptide)	effect of a large excess of GST-Nck5a on Cdk5 inhibition by the peptide ([2]; 50 μM peptide, 2, 20, 40 μg GST-p25 with 1 μg GST-Cdk5)	dissociation of cyclin A from Cdk2 on addition of peptide [3]	inhibition of the kinase by an excess amount of peptide ([4]; 400 μM peptide, data not shown)	mode of inhibition with respect to the substrate (histone H1 peptide) ([4]; double-reciprocal plot)	Cdk5 kinase activity inhibited ([2]; GST-αN concentration of 5 μM)	Compound	inhibition of Cdk2 kinase activity (in words) [1]	dissociation of cyclin A from Cdk2 on addition of peptide [3, 6]	dissociation of Nck5a from Cdk5 on addition of peptide [5]	dissociation of Nck5a from Cdk5 on addition of peptide [5, 6]	inhibition of Cdk5 kinase activity (in words) [2]
10%	50%	90%	10%	50%	90%	about 90%	no significant effect	formation of a ternary complex	near complete inhibition	noncompetitive inhibitor	–	CC(C)C[C@H](NC(=O)[C@H](CS)NC(=O)[C@H](CCCNC(=N)N)NC(=O)[C@H](CC(C)C)NC(=O)[C@H](CC(C)C)NC(=O)[C@H](CCC(=O)O)NC(=O)[C@H](CO)NC(=O)[C@@H](NC(=O)[C@H](CO)NC(=O)[C@H](C)N)[C@@H](C)O)C(=O)NCC(=O)N[C@@H](CCC(=O)O)C(=O)N[C@@H](Cc1ccccc1)C(=O)N[C@@H](CC(C)C)C(=O)N[C@@H](CS)C(=O)N[C@@H](CCCNC(=N)N)C(=O)N[C@@H](CCCNC(=N)N)C(=O)N[C@@H](CS)C(=O)N[C@@H](Cc1ccc(O)cc1)C(=O)N[C@@H](CCCNC(=N)N)C(=O)N[C@@H](CC(C)C)C(=O)N[C@@H](CCCCN)C(=O)N[C@@H](Cc1c[nH]cn1)C(=O)N[C@@H](CC(C)C)C(=O)N[C@@H](CO)C(=O)N1CCC[C@H]1C(=O)N[C@H](C(=O)N[C@@H](CC(=O)O)C(=O)O)[C@@H](C)O [αN peptide] (H-ASTSELLRCLGEFLCRRCYRLKHLSPTD-OH; N-terminus and C-terminus assumed)	even higher potency than in the case with Cdk5.Nck5a inhibition	does not lead to the dissociation of Nck5a from Cdk5 or cyclin A from Cdk2	did not lead to a dissociation of GST-Nck5a from H6-Cdk5	does not lead to the dissociation of Nck5a from Cdk5	–
–	–	–	–	–	–	–	–	–	–	–	–	DYHDIHTYLREMEVKPKPKVGYMKKQPDIT (DYHEDIHTYLREMEVKCKPKVGYMKKQPDIT; listed as Homo sapiens) [cyclin A peptide, 31-residue peptide corresponding to Asp177 to Thr207 of human cyclin A, the N-terminal alpha-helix, reference compound]	inhibited neither GST-Cdk5.GST-Nck5a nor GST-Cdk2.cyclin A-H6	–	–	–	inhibited neither GST-Cdk5.GST-Nck5a nor GST-Cdk2.cyclin A-H6
–	–	–	–	–	–	–	–	–	–	–	About 50%	GST-αN: GST fusion mutant containing a 29-residue peptide fragment corresponding to residues Gln145 to Asp173 of Nck5a (QASTSELLRCLGEFLCRRCYRLKHLSPTD; cysteine pairing not given here; also: fused to GST)	also inhibited the kinase activity of Cdk2	–	–	–	inhibit Cdk5 kinase activity in a dose-dependent manner
